Assay results from patent US7470549B2, “Measurement method using biosensor” (FUJIFILM Corporation, priority 2004, dated 2008).

Columns and labels:
[1] = target: T1, Trypsin (Bos taurus, UniProt P00760); experiment: SPR measurement of substance binding to trypsin immobilized on hydrogel-coated chip (Examples 1-4); conditions: for Bond of substance interacting with trypsin (RU): 0.002 mM solution, left at rest 10 minutes, change of resonance signal, hydrogel-coated chip; for Binding to trypsin (in words): comment on Table 1
T1 sequence (P00760 24-246): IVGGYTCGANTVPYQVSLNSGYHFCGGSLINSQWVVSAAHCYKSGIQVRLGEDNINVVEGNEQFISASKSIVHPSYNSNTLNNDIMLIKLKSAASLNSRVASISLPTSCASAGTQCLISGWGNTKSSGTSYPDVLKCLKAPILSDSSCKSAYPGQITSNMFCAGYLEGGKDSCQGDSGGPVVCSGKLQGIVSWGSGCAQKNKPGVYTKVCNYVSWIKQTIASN
Description: Trypsin (manufactured by Worthington) was immobilized on a measurement chip. Interaction measurement was carried out using a surface plasmon resonance measurement device.
(§1) A mixed solution consisting of 1-ethyl-2,3-dimethylaminopropylcarbodiimide (400 mM) and N-hydroxysuccinimide (100 mM) was added to a hydrogel-coated chip, followed by leaving at rest for 20 minute. Thereafter, the resultant product was washed with an HBS-N buffer containing 10 mM CaCl2. Subsequently, trypsin (1 mg/ml, 10 mM CaCl2-containing HBS-N buffer) was added thereto, followed by leaving at rest for 30 minutes. Thereafter, the resultant product was washed with a 10 mM CaCl2-containing HBS-N buffer. The used HBS-N buffer is composed of 0.01 mol/l (pH 7.4) HEPES (N-2-hydroxyethylpiperazine-N′-2-ethanesulfonic acid) and 0.15 mol/l NaCl.
Thereafter, an ethanolamine/HCl solution (1M, pH 8.5) was added to the measurement chip, followed by washing with an HBS-N buffer (manufactured by Biacore), so as to block COOH groups that remained without reacting with trypsin.
(§2) By the aforementioned operations, trypsin was immobilized on the surface of the measurement chip via a covalent bond. The amount by which resonance signals (RU value) obtained before the addition of trypsin and after washing it had changed was defined as the immobilized amount of trypsin (RU value).
(§3) A measurement chip was washed with an HBS-N buffer. Thereafter, the measurement chip was equipped into a surface plasmon resonance measurement device, and a leupeptin solution (0.002 mM, HBS-N buffer) was added thereto, followed by leaving at rest for 10 minutes. The amount by which resonance signals (RU value) had changed was defined as the amount of leupeptin (manufactured by ICN) binding to trypsin.
A measurement chip was washed with an HBS-N buffer.
as §3, with “chymostatin” for “leupeptin”

[2] = target: T1, Trypsin; experiment: Enzyme activity of immobilized trypsin with Bz-Arg-MCA, fluorescence of decomposed product, same hydrogel chip (Examples 1-4); assay type: biochemical; conditions: for Measurement results of fluorescence intensity (120 minutes): 0.002 mM substance, 0.1 mM Bz-Arg-MCA, excitation 380 nm, emission 460 nm, no substance: 580; for Inhibitory action on the enzyme activity of trypsin (in words): comment on Table 1
Description: (§4) Using the chip after the measurement of the amount of leupeptin binding to trypsin described in (2) above, the enzyme activity of trypsin was measured. Specifically, a substrate specific to trypsin (benzoyl-L-arginine-4-methylcoumarin-7-amide (hereinafter referred to as Bz-Arg-MCA); Peptide Institute, Inc.) was allowed to react with trypsin, and fluorescence in the decomposed product was measured.
The HBS-N buffer contained in the measurement chip was removed, and a leupeptin solution (0.002 mM, HBS-N buffer) and 0.1 mM Bz-Arg-MCA were added thereto. The reaction was then carried out for 10, 30, 60, and 120 minutes.
Fluorescence measurement was carried out regarding the reaction for each of the aforementioned reaction times, using the BMGLabTechnologies FLUOstar measurement device (excitation: 380 nm; and emission: 460 nm).
(§5) Specifically, a substrate specific to trypsin (benzoyl-L-arginine-4-methylcoumarin-7-amide (hereinafter referred to as Bz-Arg-MCA); Peptide Institute, Inc.) was allowed to react with trypsin, and fluorescence in the decomposed product was measured.
The reaction was then carried out for 10, 30, 60, and 120 minutes.
Fluorescence measurement was carried out regarding the reaction for each of the aforementioned reaction times, using the BMGLabTechnologies FLUstar measurement device (excitation: […]; and emission: 460 nm).
as §4, with “chymostatin” for “leupeptin”, “trypsin” for “trypsin described”
The HBS-N buffer contained in the measurement chip was removed, and a chymostatin solution (0.002 mM, HBS-N buffer) and 0.1 mM Bz-Arg-MCA were added thereto. The reaction was then carried out for 10, 30, 60, and 120 minutes.
(§6) Fluorescence measurement was carried out regarding the reaction for each of the aforementioned reaction times, using the BMGLabTechnologies FLUstar measurement device (excitation: 380 nm; and emission: 460 nm).

[3] = target: T1, Trypsin; experiment: Selection of compounds by affinity: SPR binding to trypsin-immobilized PMMA/PEO sensor chip (Example 6); conditions: for Binding amount (RU): left at rest 10 minutes, change of resonance signal, PMMA sensor chip
Description: Using the SPR system used for screening shown in FIG. 1, immobilization of a ligand, the binding measurement of compounds, and selection of compounds were carried out.
Thereafter, it was placed in a spin coater (MODEL ASS-303; manufactured by ABLE) and then rotated at 1,000 rpm. 50 μl of a methyl ethyl ketone solution containing polymethyl methacrylate (2 mg/ml) was added dropwise to the center of the cover glass coated with gold via evaporation, and 2 minutes later, the rotation was terminated. The thickness of the membrane was measured by the ellipsometry method (In-Situ Ellipsometer MAUS-101; manufactured by Five Lab). […] This sample is called a PMMA surface chip. This PMMA surface chip was immersed in an NaOH aqueous solution (1 N) at 40° C. for 16 hours, followed by washing with water 3 times. This sample is called a PMMA/COOH surface chip. This PMMA/COOH surface chip was immersed in 2 ml of a mixed solution of 1-ethyl-2,3-dimethylaminopropylcarbodiimide (400 mM) and N-hydroxysuccinimide (100 mM) for 60 minutes. Thereafter, it was immersed in 2 ml of an α-amino-polyethyleneoxy-ω-carboxylic acid (mean molecular weight: 5,000) aqueous solution (10 mM) for 16 hours. The resultant product was finally washed with water 5 times. The thus obtained sensor chip was used in the following operation.
as §1, with “solution” for “solution consisting”, “the sensor chip produced in (1) above,” for “a hydrogel-coated chip,”, “buffer.” for “buffer. The used HBS-N buffer is composed of 0.01 mol/l (pH 7.4) HEPES (N-2-hydroxyethylpiperazine-N′-2-ethanesulfonic acid) and 0.15 mol/l NaCl.”
Thereafter, an ethanolamine/HCl solution (1M, pH 8.5) was added to the measurement chip, followed by washing with an HBS-N buffer (manufactured by Biacore).
The sensor chip on which trypsin had been immobilized was washed with an HBS-N buffer.

[4] = target: T1, Trypsin; experiment: SPR binding to trypsin on PMMA measurement chip, Biacore 3000 (Example 5); conditions: leupeptin 0.002 mM, 10 minutes
Description: Trypsin (manufactured by Worthington) was immobilized on a PMMA measurement chip. Interaction measurement was carried out using a surface plasmon resonance measurement device (Biacore 3000).
A PMMA measurement chip was equipped into Biacore 3000. A mixed solution of 1-ethyl-2,3-dimethylaminopropylcarbodiimide (400 mM) and N-hydroxysulfosuccinimide (100 mM) was added thereto, followed by reaction for 7 minutes. Thereafter, trypsin (0.05 mg/ml, 10 mM CaCl2-containing HBS-N buffer) was added thereto, followed by reaction for 7 minutes.
Thereafter, an ethanolamine/HCl solution (1M, pH 8.5) was added to the measurement chip, followed by reaction for 7 minutes, so as to block COOH groups that remained without reacting with trypsin.
as §2, with “of the PMMA measurement chip” for “of the measurement chip”
A leupeptin solution (0.002 mM, HBS-N buffer) was added to a measurement chip, followed by reaction for 10 minutes. The amount by which resonance signals (RU value) had changed was defined as the amount of leupeptin (manufactured by ICN) binding to trypsin.

[5] = target: T1, Trypsin; experiment: Enzyme activity of trypsin on PMMA chip with Bz-Arg-MCA, fluorescence (Example 5); assay type: biochemical; conditions: leupeptin 0.002 mM, 0.1 mM Bz-Arg-MCA
Description: as §4, with “Using the PMMA chip after” for “Using the chip after”, “to trypsin in (2)” for “to trypsin described in (2)”
The inside of the PMMA measurement chip was washed with an HBS-N buffer. Thereafter, a leupeptin solution (0.002 mM, HBS-N buffer) and 0.1 mM Bz-Arg-MCA were added thereto. The reaction was then carried out for 10, 30, 60, and 120 minutes.
as §6

[6] = target: T1, Trypsin; experiment: Selection of compounds due to biological activity: trypsin enzyme activity with Bz-Arg-MCA, fluorescence (Example 7); assay type: biochemical
Description: as §5
Thereafter, the reaction was then carried out for 10, 30, 60, and 120 minutes.
as §6

SMILES	Bond of substance interacting with trypsin (RU) [1] [RU]	Binding to trypsin (in words) [1]	Measurement results of fluorescence intensity (120 minutes) [2]	Inhibitory action on the enzyme activity of trypsin (in words) [2]	Binding amount (RU) [3] [RU]	Binding amount of substance interacting with trypsin, compared with CM5 cup [4]	Fluorescence intensity, compared with CM5 cup [5]	Binding observed, selection of compounds (in words) ([3]; Example 6 (3))	Selection due to binding amount ([3]; symbols ◯ / X, key not given)	Measurement value of fluorescence intensity ([6]; 4 μM compound solution mixed 1:1 with 0.2 mM Bz-Arg-MCA, reaction time of the value not given, no compound: 594)	Inhibition of the enzyme activity of trypsin, selection of compounds (in words) ([6]; Example 7 (3))	Selection due to enzyme activity ([6]; symbols ◯ / X, key not given)
CC(C)C[C@H](NC(=O)[C@@H](NC(=O)N[C@@H](Cc1ccccc1)C(=O)O)[C@@H]1CCN=C(N)N1)C(=O)N[C@H](C=O)Cc1ccccc1 [Chymostatin]	0	did not bind to trypsin	576	no inhibitory action on the enzyme activity of trypsin was observed	0	–	–	–	–	–	–	–
CC(=O)N[C@@H](CC(C)C)C(=O)N[C@@H](CC(C)C)C(=O)N[C@H](C=O)CCCNC(=N)N [Leupeptin]	22	bound to the enzyme activity site of trypsin	2	inhibiting the enzyme activity	23	equivalent to the values obtained with CM5 cup	equivalent to the values obtained with CM5 cup	the binding of which were observed, were selected	◯	3	inhibited the enzyme activity of trypsin	◯
